Assay results published in patent US20240383901A1, “SUBSTITUTED PYRROLO[2,3-D]PYRIMIDINES, THEIR PREPARATION AND THEIR THERAPEUTIC APPLICATION” (SANOFI, priority 2021, published 2024).

Key:
Type in all cases: biochemical
LRRK2 = LRRK2 (Homo sapiens, UniProt Q5S007); assay: LRRK2 WT assay (Assay B, radiometric 33P-ATP filter binding); conditions: Assay B (values marked *)
Protocol: LRRK2(human) is incubated with 50 mM HEPES pH 8.0, 0.2 mM EDTA, 0.01% Brij-35, 1% (w/v) BSA, 5 mM DTT, 250 Mm […], 10 mM Magnesium acetate and [[…]]-ATP (specific activity and concentration as required).
The reaction is initiated by the addition of the Mg/ATP mix.

[1] = biological target: T1, full-length LRRK2 wild type (Homo sapiens, UniProt Q5S007); assay: LRRK2 WT assay (Assay A, Lanthascreen TR-FRET, 500 uM ATP); conditions: Assay A (values without *)
T1 construct: DYDDDDK tagged full-length LRRK2 wild type is used

full-length LRRK2 G2019S = biological target: T2, full-length LRRK2 G2019S (Homo sapiens, UniProt Q5S007, G2019S); assay: LRRK2-G2019S kinase activity assay (Lanthascreen TR-FRET); conditions: 1.1 mM ATP
T2 construct: DYKDDDDK (FLAG)
T2 sequence (Q5S007 whole entry G2019S): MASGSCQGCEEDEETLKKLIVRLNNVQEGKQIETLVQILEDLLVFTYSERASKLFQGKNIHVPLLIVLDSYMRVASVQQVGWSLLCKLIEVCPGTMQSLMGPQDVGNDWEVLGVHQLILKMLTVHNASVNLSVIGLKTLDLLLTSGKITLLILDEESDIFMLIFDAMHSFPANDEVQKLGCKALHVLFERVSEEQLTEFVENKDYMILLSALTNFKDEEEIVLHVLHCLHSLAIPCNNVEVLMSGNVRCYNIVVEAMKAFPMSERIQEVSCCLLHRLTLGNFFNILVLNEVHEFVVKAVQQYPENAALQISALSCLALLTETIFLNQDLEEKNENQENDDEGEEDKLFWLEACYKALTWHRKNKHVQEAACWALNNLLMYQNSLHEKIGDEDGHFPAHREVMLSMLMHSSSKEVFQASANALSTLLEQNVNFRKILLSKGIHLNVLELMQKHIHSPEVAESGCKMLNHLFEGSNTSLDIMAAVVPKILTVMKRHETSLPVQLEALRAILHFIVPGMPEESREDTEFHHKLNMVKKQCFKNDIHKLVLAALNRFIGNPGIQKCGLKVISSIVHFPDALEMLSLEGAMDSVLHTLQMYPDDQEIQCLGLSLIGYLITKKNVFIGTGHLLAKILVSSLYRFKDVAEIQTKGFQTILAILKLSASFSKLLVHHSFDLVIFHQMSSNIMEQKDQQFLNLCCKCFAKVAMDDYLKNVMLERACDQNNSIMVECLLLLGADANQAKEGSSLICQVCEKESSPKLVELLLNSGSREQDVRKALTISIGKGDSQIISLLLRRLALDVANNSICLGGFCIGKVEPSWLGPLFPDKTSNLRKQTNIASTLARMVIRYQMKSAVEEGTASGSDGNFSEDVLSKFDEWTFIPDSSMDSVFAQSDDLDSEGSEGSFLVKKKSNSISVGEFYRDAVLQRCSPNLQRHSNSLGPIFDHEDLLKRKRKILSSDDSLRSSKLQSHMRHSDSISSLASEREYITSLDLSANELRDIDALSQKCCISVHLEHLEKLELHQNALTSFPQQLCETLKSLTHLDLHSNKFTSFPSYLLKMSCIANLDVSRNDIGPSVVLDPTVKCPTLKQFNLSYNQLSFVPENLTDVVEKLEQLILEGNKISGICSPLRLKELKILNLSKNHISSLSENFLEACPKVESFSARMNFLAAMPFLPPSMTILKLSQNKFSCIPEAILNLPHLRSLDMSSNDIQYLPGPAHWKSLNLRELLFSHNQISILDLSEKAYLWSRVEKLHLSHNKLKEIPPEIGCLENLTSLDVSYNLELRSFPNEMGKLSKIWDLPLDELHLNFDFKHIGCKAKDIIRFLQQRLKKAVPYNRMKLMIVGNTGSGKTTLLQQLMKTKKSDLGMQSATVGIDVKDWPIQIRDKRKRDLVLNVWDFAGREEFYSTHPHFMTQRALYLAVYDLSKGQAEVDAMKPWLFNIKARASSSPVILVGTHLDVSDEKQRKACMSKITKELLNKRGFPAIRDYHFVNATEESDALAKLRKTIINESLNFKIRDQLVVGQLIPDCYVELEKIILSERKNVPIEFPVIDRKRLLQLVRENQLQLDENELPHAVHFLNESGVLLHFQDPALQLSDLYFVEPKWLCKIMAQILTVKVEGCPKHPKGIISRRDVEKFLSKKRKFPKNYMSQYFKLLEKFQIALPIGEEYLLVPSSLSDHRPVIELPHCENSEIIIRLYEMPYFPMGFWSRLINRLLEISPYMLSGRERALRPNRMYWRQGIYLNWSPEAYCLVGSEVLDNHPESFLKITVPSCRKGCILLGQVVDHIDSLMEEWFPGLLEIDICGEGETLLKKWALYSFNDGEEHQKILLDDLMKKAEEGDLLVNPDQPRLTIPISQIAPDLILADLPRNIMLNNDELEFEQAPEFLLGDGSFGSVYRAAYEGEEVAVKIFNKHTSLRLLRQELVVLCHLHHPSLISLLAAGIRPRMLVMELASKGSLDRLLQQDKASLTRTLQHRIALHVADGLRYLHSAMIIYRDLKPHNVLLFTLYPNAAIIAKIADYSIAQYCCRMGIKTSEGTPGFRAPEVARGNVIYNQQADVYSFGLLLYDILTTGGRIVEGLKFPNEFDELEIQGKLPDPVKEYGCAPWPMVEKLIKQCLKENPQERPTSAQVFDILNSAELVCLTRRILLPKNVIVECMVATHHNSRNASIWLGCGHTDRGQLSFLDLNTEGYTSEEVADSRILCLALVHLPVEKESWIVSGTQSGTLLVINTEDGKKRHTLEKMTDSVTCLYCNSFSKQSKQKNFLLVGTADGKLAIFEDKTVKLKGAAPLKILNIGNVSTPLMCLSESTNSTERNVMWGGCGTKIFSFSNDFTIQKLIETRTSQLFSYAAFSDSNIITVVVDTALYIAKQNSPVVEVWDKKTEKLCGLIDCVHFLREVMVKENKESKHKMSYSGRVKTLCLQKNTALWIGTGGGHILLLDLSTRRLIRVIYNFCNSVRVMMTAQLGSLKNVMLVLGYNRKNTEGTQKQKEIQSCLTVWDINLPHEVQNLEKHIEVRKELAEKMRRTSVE

Chain of LRRK2 (Q5S007 whole entry): as the sequence (Q5S007 whole entry G2019S) above, with S2019G counted along it
T1 sequence (Q5S007 whole entry): as the sequence (Q5S007 whole entry G2019S) above, with S2019G counted along it

Structure (SMILES)	IC50 [1] [µM]	IC50 (full-length LRRK2 G2019S) [µM]	IC50 (LRRK2) [µM]
CC[C@H]1COC[C@H]1n1c(C#N)cc2cnc(Nc3cn(C)nc3OC(C)C)nc21 (racemic) [Example 72, 7-((cis)-4-ethyltetrahydrofuran-3-yl)-2-((3-isopropoxy-1-methyl-1 H-pyrazol-4-yl)amino)-7H-pyrrolo[2,3-d]pyrimidine-6-carbonitrile]	–	–	0.083
CC[C@@H]1COC[C@H]1n1c(C#N)cc2cnc(Nc3cn(C)nc3OC(C)C)nc21 (racemic) [Example 73, 7-((trans)-4-ethyltetrahydrofuran-3-yl)-2-((3-isopropoxy-1-methyl-1 H-pyrazol-4-yl)amino)-7H-pyrrolo[2,3-d]pyrimidine-6-carbonitrile]	–	–	0.011
CC(C)Oc1nn(C(C)C#N)cc1Nc1ncc2cc(C#N)n([C@@H]3COC[C@@H]3C)c2n1 (single isomer, unassigned) [Example 48, 2-((1-(1-cyanoethyl)-3-isopropoxy-1 H-pyrazol-4-yl)amino)-7-((cis)-4-methyltetrahydrofuran-3-yl)-7H-pyrrolo[2,3-d]pyrimidine-6-carbonitrile]	–	–	0.256
CC(C)Oc1nn(C(C)C#N)cc1Nc1ncc2cc(C#N)n([C@@H]3COC[C@@H]3C)c2n1 (single isomer, unassigned) [Example 49, 2-((1-(1-cyanoethyl)-3-isopropoxy-1 H-pyrazol-4-yl)amino)-7-((cis)-4-methyltetrahydrofuran-3-yl)-7H-pyrrolo[2,3-d]pyrimidine-6-carbonitrile]	–	–	0.274
CC(C)Oc1nn(C(C)C#N)cc1Nc1ncc2cc(C#N)n([C@@H]3COC[C@@H]3C)c2n1 (single isomer, unassigned) [Example 50, 2-((1-(1-cyanoethyl)-3-isopropoxy-1 H-pyrazol-4-yl)amino)-7-((cis)-4-methyltetrahydrofuran-3-yl)-7H-pyrrolo[2,3-d]pyrimidine-6-carbonitrile]	–	–	0.007
CC(C)Oc1nn(C(C)C#N)cc1Nc1ncc2cc(C#N)n([C@@H]3COC[C@@H]3C)c2n1 (single isomer, unassigned) [Example 51, 2-((1-(1-cyanoethyl)-3-isopropoxy-1 H-pyrazol-4-yl)amino)-7-((cis)-4-methyltetrahydrofuran-3-yl)-7H-pyrrolo[2,3-d]pyrimidine-6-carbonitrile]	–	–	0.005
Cn1cc(Nc2ncc3cc(C#N)n(C4CCOC4)c3n2)c(OC2COC2)n1 (single isomer, unassigned) [Example 52, 2-((1-methyl-3-(oxetan-3-yloxy)-1 H-pyrazol-4-yl)amino)-7-(tetrahydrofuran-3-yl)-7H-pyrrolo[2,3-d]pyrimidine-6-carbonitrile]	–	–	0.026
Cn1cc(Nc2ncc3cc(C#N)n(C4CCOC4)c3n2)c(OC2COC2)n1 (single isomer, unassigned) [Example 53, 2-((1-methyl-3-(oxetan-3-yloxy)-1 H-pyrazol-4-yl)amino)-7-(tetrahydrofuran-3-yl)-7H-pyrrolo[2,3-d]pyrimidine-6-carbonitrile]	–	–	0.266
CO[C@H]1COC[C@H]1n1c(C#N)cc2cnc(Nc3cn(C(C)C#N)nc3OC(C)C)nc21 (single isomer, unassigned) [Example 57]	–	–	0.027
Cn1cc(Nc2ncc3cc(C#N)n(C4CCCOC4)c3n2)c(OC2COC2)n1 (single isomer, unassigned) [Example 81, 2-((1-methyl-3-(oxetan-3-yloxy)-1 H-pyrazol-4-yl)amino)-7-(tetrahydro-2H-pyran-3-yl)-7H-pyrrolo[2,3-d]pyrimidine-6-carbonitrile]	–	–	0.183
Cn1cc(Nc2ncc3cc(C#N)n(C4CCCOC4)c3n2)c(OC2COC2)n1 (single isomer, unassigned) [Example 82, 2-((1-methyl-3-(oxetan-3-yloxy)-1 H-pyrazol-4-yl)amino)-7-(tetrahydro-2H-pyran-3-yl)-7H-pyrrolo[2,3-d]pyrimidine-6-carbonitrile]	–	–	0.104
[2H]C([2H])([2H])n1cc(Nc2ncc3cc(C#N)n([C@@H](C)COC)c3n2)c(OC2COC2)n1 [Example 91, 7-[(2S)-1-Methoxypropan-2-yl]-2-[[3-(oxetan-3-yloxy)-1-(methyl-d3)pyrazol-4-yl]amino]pyrrolo[2,3-d]pyrimidine-6-carbonitrile]	0.013	0.007	–
COC[C@H](C)n1c(C#N)cc2cnc(Nc3cn(COC)nc3OC3CC3)nc21 [Example 92, 2-[[3-(Cyclopropoxy)-1-(methoxymethyl)pyrazol-4-yl]amino]-7-[(1S)-2-methoxy-1-methyl-ethyl]pyrrolo[2,3-d]pyrimidine-6-carbonitrile]	0.006	0.004	–
COC[C@H](C)n1c(C#N)cc2cnc(Nc3cn(CS(C)(=O)=O)nc3OC3COC3)nc21 [Example 93, 7-[(1S)-2-Methoxy-1-methyl-ethyl]-2-[[1-(methylsulfonylmethyl)-3-(oxetan-3-yloxy)pyrazol-4-yl]amino]pyrrolo[2,3-d]pyrimidine-6-carbonitrile]	0.008	0.004	–
[2H]C([2H])([2H])n1cc(Nc2ncc3cc(C#N)n([C@@H](C)COC)c3n2)c(OC2CC(O)C2(C)C)n1 (stereo partly drawn) [Example 108, 2-((3-(3-hydroxy-2,2-dimethylcyclobutoxy)-1-(methyl-d3)-1H-pyrazol-4-yl)amino)-7-((S)-1-methoxypropan-2-yl)-7H-pyrrolo[2,3-d]pyrimidine-6-carbonitrile]	0.01	0.01	–

Continued, in another order:

IC50 [1] [µM]	IC50 (full-length LRRK2 G2019S) [µM]	Structure (SMILES)	IC50 (LRRK2) [µM]
0.035	0.031	COCCn1cc(Nc2ncc3cc(C#N)n([C@@H](C)COC)c3n2)c(OC2CC2)n1 [Example 103, (S)-2-((3-cyclopropoxy-1-(2-methoxyethyl)-1H-pyrazol-4-yl)amino)-7-(1-methoxypropan-2-yl)-7H-pyrrolo[2,3-d]pyrimidine-6-carbonitrile]	–
0.044	0.042	COCC(C)n1c(C#N)cc2cnc(Nc3cn(C4CCC(C)(O)CC4)nc3OC(C)C)nc21 [Example 104, cis-2-((1-(4-hydroxy-4-methylcyclohexyl)-3-isopropoxy-1H-pyrazol-4-yl)amino)-7-((S)-1-methoxypropan-2-yl)-7H-pyrrolo[2,3-d]pyrimidine-6-carbonitrile]	–
0.062	0.057	COCC(C)n1c(C#N)cc2cnc(Nc3cn(C4CCC(C)(O)CC4)nc3OC(C)C)nc21 [Example 105, trans-2-((1-(4-hydroxy-4-methylcyclohexyl)-3-isopropoxy-1H-pyrazol-4-yl)amino)-7-((S)-1-methoxypropan-2-yl)-7H-pyrrolo[2,3-d]pyrimidine-6-carbonitrile]	–
0.07	0.055	COCC(C)n1c(C#N)cc2cnc(Nc3cn(C4CCC(C)(O)CC4)nc3OC3CC3)nc21 [Example 106, cis-2-((3-cyclopropoxy-1-(4-hydroxy-4-methylcyclohexyl)-1H-pyrazol-4-yl)amino)-7-((S)-1-methoxypropan-2-yl)-7H-pyrrolo[2,3-d]pyrimidine-6-carbonitrile]	–
0.09	0.081	COCC(C)n1c(C#N)cc2cnc(Nc3cn(C4CCC(C)(O)CC4)nc3OC3CC3)nc21 [Example 107, trans-2-((3-cyclopropoxy-1-(4-hydroxy-4-methylcyclohexyl)-1H-pyrazol-4-yl)amino)-7-((S)-1-methoxypropan-2-yl)-7H-pyrrolo[2,3-d]pyrimidine-6-carbonitrile]	–
0.027	0.027	COCCn1cc(Nc2ncc3cc(C#N)n([C@H]4COC[C@@H]4C)c3n2)c(OC2CC2)n1 [Example 113, 2-((3-Cyclopropoxy-1-(2-methoxyethyl)-1 H-pyrazol-4-yl)amino)-7-((3R,4R)-4-methyltetrahydrofuran-3-yl)-7H-pyrrolo[2,3-d]pyrimidine-6-carbonitrile]	–
0.153	0.222	COCCn1cc(Nc2ncc3cc(C#N)n(C4CCOCC4)c3n2)c(OC2CC2)n1 [Example 122, 2-((3-Cyclopropoxy-1-(2-methoxyethyl)-1 H-pyrazol-4-yl)amino)-7-(tetrahydro-2H-pyran-4-yl)-7H-pyrrolo[2,3-d]pyrimidine-6-carbonitrile]	–
0.081	0.104	COCC(C)n1cc(Nc2ncc3cc(C#N)n([C@H]4COC[C@@H]4C)c3n2)c(OC2COC2)n1 (stereo partly drawn) [Example 128, 2-((1-(1-Methoxypropan-2-yl)-3-(oxetan-3-yloxy)-1 H-pyrazol-4-yl)amino)-7-((3R,4R)-4-methyltetrahydrofuran-3-yl)-7H-pyrrolo[2,3-d]pyrimidine-6-carbonitrile]	–
0.011	0.011	COC[C@H](C)n1c(C#N)cc2cnc(Nc3cn(CCO)nc3OC3CCOCC3)nc21 [Example 138, (S)-2-((1-(2-hydroxyethyl)-3-((tetrahydro-2H-pyran-4-yl)oxy)-1 H-pyrazol-4-yl)amino)-7-(1-methoxypropan-2-yl)-7H-pyrrolo[2,3-d]pyrimidine-6-carbonitrile]	–
0.022	0.02	COC[C@H](C)n1c(C#N)cc2cnc(Nc3cn(CCO)nc3OC3COC3)nc21 [Example 139, (S)-2-((1-(2-hydroxyethyl)-3-(oxetan-3-yloxy)-1 H-pyrazol-4-yl)amino)-7-(1-methoxypropan-2-yl)-7H-pyrrolo[2,3-d]pyrimidine-6-carbonitrile]	–
0.002	0.001	COC[C@H](C)n1c(C#N)cc2cnc(Nc3ccc(C(C)(C)O)cc3OC3CC3)nc21 [Example 154, (S)-2-((2-cyclopropoxy-4-(2-hydroxypropan-2-yl)phenyl)amino)-7-(1-methoxypropan-2-yl)-7H-pyrrolo[2,3-d]pyrimidine-6-carbonitrile]	–
